Reference: US20070078057A1, “Microemulsion formulation” (priority 2005, published 2007)

Assay: Maximum concentration of ingredient incorporated into the microemulsion
Format: physicochemical
Settings: incorporated into the microemulsion formulation of Table 28

## CCCCCC [Hexane]
  Approximate Maximum Concentration: 2.0

## C[C@]12C=CC(=O)C=C1CC[C@@H]1[C@@H]2C(=O)C[C@@]2(C)[C@H]1CC[C@]2(O)C(=O)CO [Prednisone, reference compound]
  Approximate Maximum Concentration: 0.5

## Cc1ccccc1 [Toluene]
  Approximate Maximum Concentration: 2.0

## CC(=O)Oc1c(C)c(C)c2c(c1C)CCC(C)(CCC[C@H](C)CCC[C@H](C)CCCC(C)C)O2 (stereo partly drawn) [Vitamin E, α-Tocopherol acetate, reference compound]
  Approximate Maximum Concentration: 1.0

## Xylene
  Approximate Maximum Concentration: 5.0
